Columns and labels:
[1] = target: T1, gamma secretase γ and ε cleavage of Fas-APPsw-DD (Homo sapiens, UniProt P49768); assay: Concurrent Aβ and AICD ELISA in Fas-APPsw-DD transfected 293 cells (APP γ versus ε cleavage); format: cell-based
T1 construct: active gamma secretase is endogenously and constitutively produced by the cell cultures; endogenous in cells; host or cells: HEK 293, transfected with Fas-APPsw-DD
Experimental: Polyclonal antibody AICD ELISA. HEK 293 cells were grown under standard conditions to ˜90% confluence. Cells were harvested, counted, and subsequently plated onto PDL-coated 60 mm dishes at 2×10^6 cells/dish in 5 mL media. The cells were allowed to settle onto the dishes for ˜4 hours. Transfection of various construct into cells was performed using standard techniques using Lipofectamine 2000™ (LF2K) (Invitrogen). Briefly, 2 μg plasmid DNA and 4 μL LF2K were diluted into separate 150 μL aliquots of Opti-MEM (Gibco), and allowed to stand for 10-15 minutes. The two aliquots were then mixed, and the DNA:Lipid complex allowed to form for about 20 minutes. The 300 μL DNA:Lipid complex was then added to the cells in 3 mL fresh media, and incubated overnight. In order to administer potential or known gamma secretase inhibitor compounds to cells, the transfected cells were harvested, replated into PDL-coated 24-well plates at 200,000 cells/well, and allowed to settle onto the plates for ˜4 hours. Cells were washed, and 500 μL fresh media added. […]
The term ‘non-selective’ in this instance refers to lack of selectivity for cell Aβ over Notch signaling (or GammaAPP over GammaNotch). […] The calculated γ/ε selectivity of the non-selective compounds (FIG. 11 and Table I) were 0.7, 1.1, 1.8 and 1.9 for DAPT, 44989, 46719 and the Merck compound, respectively. […]

[2] = target: T2, gamma secretase cleavage of C99GVP (AICD-GVP) (Homo sapiens, UniProt P49768); assay: Luciferase reporter gene assay, AICD-GVP transactivation from C99GVP in HEK293 cells; format: cell-based; conditions: C99-GVP, FIG. 5C
T2 construct: active gamma secretase is endogenously and constitutively produced by the cell cultures; endogenous in cells; host or cells: HEK 293, co-transfected with C99GVP, pG5E1B-luc and pCMV-β-gal
Experimental: Luciferase Reporter Gene Assay: Luciferase reporter assays were carried out 48 hr post-transfection. Cells seeded on 96-well plates (BD Biosciences) were washed once with PBS and harvested in 20 μl of reporter lysis buffer (Promega) per well. After adding 100 μl of luminescent substrate (Promega), the luciferase activity was measured with a MicroLumatPlus microplate luminometer (Berthold Technologies). The β-galactosidase activity was measured similarly, using a luminescent β-galactosidase substrate (BD Biosciences). As a control for transfection efficiency and general effect on transcription, the luciferase activity was normalized by measuring β-galactosidase activity on a duplicate plate. All measurements were done in triplicate and repeated at least three times.
Luciferase Assay. After confirming AICD-GVP generation in HEK cells, its ability to transactivate a luciferase reporter gene that contains Gal4 response elements in the upstream activation sequence (UAS) was tested. […] Some residual luciferase activity remained in the presence of excess gamma secretase inhibitors, even though identical treatment completely abolished AICD production as measured by Western blot (FIG. 5B). […]

[3] = test system: gamma secretase (secreted Aβ40 and Aβ42); assay: Aβ sandwich ELISA of media from C99GVP or APP transfected HEK cells treated with inhibitors; format: cell-based, Human
Experimental: Inhibitor Treatment of Transfected HEK Cell: The transition state analogue gamma secretase inhibitor-L685,458 (Sigma) and the peptidomimetic inhibitor-DAPT (Dovey, H. F., et al., J Neurochem., 2001; 76:173-181) were dissolved in DMSO to make 20 mM stocks. Similarly, a number of Elan's series of sulfonamide inhibitors were prepared and used as described herein (see, also FIGS. 11-14). Inhibitors were added to cell cultures (e.g., HEK) at the indicated final concentration, and the treated cells were harvested 48 h post-transfection. The metallo-proteinase inhibitor TAPI-1 (Calbiochem) was used at a final concentration of 40 μM. The Aβ-degrading enzyme inhibitors, Bacitracin (Calbiochem) and phosphoramidon (Calbiochem) were used at final concentration of 1 mg/ml and 40 μM, respectively. All inhibitor experiments were performed in triplicate and repeated at least three times.
ELISAs used to quantify different Aβ species were performed using standard techniques as described above and in (Johnson-Wood, K., et al., Proc. Natl. Acad. Sci. U.S.A., 1997; 94: 1550-1555, incorporated by reference). The Aβ40 and Aβ42 peptides in the samples were captured onto 2G3 or 21F12 antibody coated plates, respectively, and detected with a biotinylated 2H3 antibody. The fluorescence signal generated from a streptavidin-alkaline phosphatase conjugate (Roche) was measured with a CytoFlour microplate reader (Applied Biosystems). Synthetic Aβ40 or Aβ42 peptides (Anaspec) were used to generate standard curves (FIG. 10). All measurements were done in triplicate.
Next, Aβ generation was characterized from C99GVP. Wild type HEK cells and the mock-transfection control secreted little Aβ into the conditioned media (FIG. 5D, lane 1). In contrast, transient expression of C99GVP led to robust Aβ production, as measured by IP/Western blot (FIG. 5D) and ELISAs that detect Aβ 40 and Aβ42 species, respectively ([…], top panel). […] Finally, we compared the Aβ-lowering potency of two inhibitors, using either C99GVP or the wild type APP as substrate. As determined by ELISA, the respective IC50 values for the two substrates are essentially identical (FIG. 5E).

[4] = test system: nuclear AICD-GVP in COS-7 cells; assay: Immunostaining, subcellular distribution of AICD-GVP in transfected COS-7 cells; format: cell-based
Experimental: Immunostaining: Wild type or transiently transfected COS-7 cells (ATCC) were fixed at room temperature with 2% paraformaldehyde in PBS for 20 min and subsequently permeabilized with 0.2% Triton X-100 in PBS for 10 min. C99GVP and mutant substrates as well as AICD-GVP were detected by incubating the samples sequentially with polyclonal anti-VP16 for 2 h and Rhodamine-conjugated donkey anti-goat secondary antibody (Jackson Laboratory Cat. #705-165-003) for 1 h. All staining was visualized on a Bio-Rad MRC 1024ES confocal microscope (Bio-Rad) and captured with a coupled CCD camera.

C[C@H](NC(=O)Cc1cc(F)cc(F)c1)C(=O)N[C@H](C(=O)OC(C)(C)C)c1ccccc1 [DAPT]
γ/ε selectivity = IC50 AICD/IC50 Aβ [1]: 0.7 | luciferase reporter transactivation by AICD-GVP [2]: block luciferase reporter transactivation | secreted Aβ (Aβ40 and Aβ42) ([3]; 5 μM, 24 h, FIG. 5D): block secreted Aβ | Aβ potency (IC50) with C99GVP versus native APP substrate ([3]; FIG. 5E): equal Aβ potency | nuclear staining of AICD-GVP ([4]; C99GVP transfected COS-7 cells, 5 μM, FIG. 5F): abolished | nuclear staining of JMD chimeras ([4]; JMD chimeras in COS-7 cells, FIG. 6G): abolished
